# Experimental data reported in patent US20190000789A1, “COMPOSITION AND METHOD FOR TREATING INFECTIONS CAUSED BY VANCOMYCIN-RESISTANT INFECTIOUS AGENTS IN A SUBJECT” (priority 2015, published 2019).
# Where two headings read alike, the source gives them in different places.
# How the values were obtained:
# [1] = system: vanA-positive Enterococcus faecium clinical isolate vanA10; assay: MIC of vancomycin by serial dilution in 96-well plates with or without D-Ala; format: cell-based; conditions: for MIC: Enterococcus faecium
# Protocol: (§1) Having established the important role of D-Ala in enhancing the efficacy of vancomycin against vancomycin-resistant S. coelicolor cells, next, its effect on the resistance of clinical isolates of Enterococcus faecium, which were vanA-positive strains, was assessed. MIC values were calculated by testing a serial dilution of vancomycin in the presence or absence of D-Ala in triplicate (Table 3).
# (§2) The MIC was determined by measurement of the OD600 or by visual assessment, following the Clinical Laboratory and Standards Institute (CLSI) guidelines. […] This value compares to intermediate instead of total resistance. The strains were serially diluted in a 96-well plate and growth was assayed at OD600. The steps down refer to CSLI guidelines for clinical MIC measurements.
# (§3) Five vanA-positive Enterococcus faecium strains were collected in 2011 and 2014 from patients in the Erasmus University Medical Centre, Rotterdam, The Netherlands. Presence of the vanA gene was confirmed by real-time PCR with the LIGHTCYCLER® 480 instrument (Roche Diagnostics, Almere, The Netherlands) with the primers vanA F1 and vanA R1, and the vanA probe. The resistance profile of these isolates was determined as MIC values using the VITEK II (BioMerieux) system AST-P586. To determine the MIC of vancomycin against E. faecium, cells were grown overnight on Trypticase Soy Agar (TSA) blood agar plates (Becton Dickinson, Breda, The Netherlands) and suspended in 0.9% NaCl until OD600 0.5 (±0.05). Of this suspension, 10 μl was dispensed into wells of sterile flat-bottom 96-well polystyrene tissue culture plates (Greiner Bio-One, Alphen aan Den Rijn, The Netherlands) containing serial dilutions of vancomycin in 190 μl of a 1:1 mixture of Fetal Bovine Serum (FBS) (Gibco, Bleiswijk, The Netherlands) and Iscove's Modified Dulbecco's Medium (IMDM) (without phenolred, Gibco, Bleiswijk, The Netherlands), and in the presence or absence of 50 mM D-alanine (Alfa Aesar, Ward Hill, Mass., USA). Plates were incubated for 18-24 hours at 37° C. and MIC values determined visually following the CLSI guidelines, or by spectrophotometer at 600 nm.
# [2] = system: vanA-positive Enterococcus faecium clinical isolate vanA1; assay: as above; format: cell-based; conditions: for MIC: Enterococcus faecium
# Protocol: as §1, §2, §3
# [3] = system: vanA-positive Enterococcus faecium clinical isolate vanA2; assay: as above; format: cell-based; conditions: for MIC: Enterococcus faecium
# Protocol: as §1, §2, §3
# [4] = system: vanA-positive Enterococcus faecium clinical isolate vanA3; assay: as above; format: cell-based; conditions: for MIC: Enterococcus faecium
# Protocol: as §1, §2, §3
# [5] = system: vanA-positive Enterococcus faecium clinical isolate vanA4; assay: as above; format: cell-based; conditions: for MIC: Enterococcus faecium
# Protocol: as §1, §2, §3
# [6] = system: S. coelicolor LAG1 (ddl null mutant); assay: LC-MS analysis of peptidoglycan precursors; format: cell-based, Streptomyces coelicolor; conditions: LAG1 grown in the presence of vancomycin
# Protocol: (§4) In order to get more insights into the synthesis of vancomycin-sensitive (i.e., wild-type) or the alternate vancomycin-resistant peptidoglycan, the pool of peptidoglycan precursors was analyzed by Liquid Chromatography coupled to Mass Spectrometry (LC-MS). When cells produce wild-type PG, only the MurNac-pentapeptide with a D-Ala-D-Ala terminus are detected, while vancomycin-resistant PG precursors have a D-Ala-D-Lac terminus. To analyze the precursors produced in S. coelicolor M145 and its mutant derivatives LAG1 (Δddl) and LAG2 (Δddl vanS::IS466A) in the presence or absence of vancomycin, the strains were grown until exponential phase, after which the cultures were harvested, washed and the precursors extracted with 5% TCA. The supernatants were desalted, concentrated and analyzed by LC-MS (see Materials and Methods section).
# (§5) For the precursor isolation and identification, a modification of the method described previously by Hong and colleagues (Hong et al., 2004) was used. 10 μg vancomycin was added to the strains at the moment of inoculation. The strains were grown in NMMP (1% (w/v) Mannitol, 50 mM MgCl2) until mid-log phase (OD-0.3-0.4) and mycelia were harvested by centrifugation at 4° C. and washed in 0.9% NaCl. […] The elution was monitored at 254 nm and monitored by the sizes eluted (1193.8-1195.3).
# S. coelicolor M145 = assay: LC-MS analysis of peptidoglycan precursors; format: cell-based, Streptomyces coelicolor; conditions: M145 grown with 10 μg/ml vancomycin
# Protocol: as §4, §5
structure (smiles),measurement,setting,value
CN[C@H](CC(C)C)C(=O)N[C@H]1C(=O)N[C@@H](CC(N)=O)C(=O)N[C@H]2C(=O)N[C@H]3C(=O)N[C@H](C(=O)N[C@H](C(=O)O)c4cc(O)cc(O)c4-c4cc3ccc4O)[C@H](O)c3ccc(c(Cl)c3)Oc3cc2cc(c3O[C@@H]2O[C@H](CO)[C@@H](O)[C@H](O)[C@H]2O[C@H]2C[C@](C)(N)[C@H](O)[C@H](C)O2)Oc2ccc(cc2Cl)[C@H]1O [vancomycin],MIC,"[1]; vanA10, 50 mM D-Ala, read-out: MIC with 50 mM D-Ala",16 µg/mL
same,MIC,"[1]; vanA10, read-out: MIC without D-Ala",2050 µg/mL
same,reduction of MIC,"[1]; vanA10, 50 mM D-Ala, approximation based on 2-fold dilution steps",~128
same,MIC,"[2]; vanA1, 50 mM D-Ala, read-out: MIC with 50 mM D-Ala",256 µg/mL
same,MIC,"[2]; vanA1, read-out: MIC without D-Ala",4100 µg/mL
same,reduction of MIC,"[2]; vanA1, 50 mM D-Ala, approximation based on 2-fold dilution steps",~16
same,MIC,"[3]; vanA2, 50 mM D-Ala, read-out: MIC with 50 mM D-Ala",256 µg/mL
same,MIC,"[3]; vanA2, read-out: MIC without D-Ala",4100 µg/mL
same,reduction of MIC,"[3]; vanA2, 50 mM D-Ala, approximation based on 2-fold dilution steps",~16
same,MIC,"[4]; vanA3, 50 mM D-Ala, read-out: MIC with 50 mM D-Ala",128 µg/mL
same,MIC,"[4]; vanA3, read-out: MIC without D-Ala",4100 µg/mL
same,reduction of MIC,"[4]; vanA3, 50 mM D-Ala, approximation based on 2-fold dilution steps",~32
same,MIC,"[5]; vanA4, 50 mM D-Ala, read-out: MIC with 50 mM D-Ala",128 µg/mL
same,MIC,"[5]; vanA4, read-out: MIC without D-Ala",4100 µg/mL
same,reduction of MIC,"[5]; vanA4, 50 mM D-Ala, approximation based on 2-fold dilution steps",~32
same,precursors containing the terminal D-Ala-D-Lac dipeptide,[6],95.7%
same,precursors of the vancomycin-insensitive variant (D-Ala-D-Lac),S. coelicolor M145,91.5%
